Experimental data taken from patent US12606528B2, “Methods and materials for inhibiting NF-kB activity” (University of Pittsburgh - Of the Commonwealth System of …, priority 2019, dated 2026).
pIC50: −log10 of the molar value. Like-named read-outs stand apart in the source and are kept apart here.

Columns and labels:
NF-κB = NF-κB assay: THP1-NF-κB-LUC cells, LPS-stimulated secreted luciferase; format: cell-based; conditions: THP1-NF-κB-LUC cells, read-out: IC50 (NF-κB assay)
Summary of the method: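 THP1-NF-κB-LUC cells (25k/well) were pretreated with compounds for 2 h, then stimulated with LPS (10 ng/mL) for 18 h. Secreted luciferase was measured and normalized to vehicle, and IC50 was fitted from the concentration series.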

TNF release = assay: TNF assay: TNF release from LPS-stimulated human PBMCs (TNF ELISA); format: cell-based; conditions: PBMC, read-out: IC50 (TNF assay)
Procedure: 25k THP1-NF-κB-LUC cells were dispensed into 384 well plate (per well). Cells were treated with compounds with various concentrations for 2 hours before addition of LPS (10 ng/mL) for 18 hours. Secreted luciferase activity were measured using quant-luc reagents (1 bag of luc reagent dilute to 40 mL, use 10 μL per well). Data were normalized to vehicle control and graphed. Compound IC50 towards inhibiting NF-κB were determined through Prism. Similarly, 10k human PBMCs cells were cultured in 384 well plate (per well). Cells were treated with compounds with various concentrations for 2 hours before addition of LPS (10 ng/ml) for 18 hours, and supernatants were collected and assayed for TNF ELISA. Compound IC50 towards inhibiting TNF release were determined through Prism. • Activity: “+”>10 μM, “++”>1 μM and <10 μM, “+++”>0.1 μM and <1 μM, “++++”<0.1 μM.

[1] = compounds 2 hours before LPS (10 ng/mL) for 18 hours, secreted luciferase
[2] = human PBMCs, compounds 2 hours before LPS (10 ng/ml) for 18 hours, supernatant TNF ELISA
[3] = LPS-stimulated human PBMCs, TNF ELISA

Row | pIC50 (NF-κB; [1]) | pIC50 (TNF release; [2]) | pIC50 (NF-κB; LPS-stimulated) | pIC50 (TNF release; [3]) | Structure (SMILES)
1 | 5.00 to 6.00 | < 5.00 | – | – | Cc1ccc(C)c2c(=O)c(S(=O)(=O)c3ccc(F)c(F)c3)c[nH]c12 [BC19198]
2 | 6.00 to 7.00 | < 5.00 | – | – | COc1ccc(Cl)c2c(=O)c(S(=O)(=O)c3ccc(F)c(F)c3)c[nH]c12 [BC19199]
3 | 5.00 to 6.00 | < 5.00 | – | – | COc1ccc(C)c2c(=O)c(S(=O)(=O)c3ccc(F)c(F)c3)c[nH]c12 [BC19200]
4 | < 5.00 | < 5.00 | – | – | O=c1c(S(=O)(=O)c2ccc(F)c(F)c2)c[nH]c2ccncc12 [BC19201]
5 | < 5.00 | < 5.00 | – | – | COc1ccc2[nH]cc(S(=O)(=O)c3ccc(F)cc3)c(=O)c2n1 [BC19202]
6 | – | – | < 5.00 | < 5.00 | O=S(=O)(c1ccccc1)c1cnn(-c2ccccc2)c1 [BC19204]
7 | – | – | 5.00 to 6.00 | < 5.00 | O=S(=O)(c1ccccc1)c1ccn(-c2ccccc2)n1 [BC19205]
8 | 5.00 to 6.00 | < 5.00 | – | – | CC1Oc2cc(S(=O)(=O)Nc3ccccc3)c(Cl)cc2NC1=O (centres unmarked) [BC19206]
9 | < 5.00 | < 5.00 | – | – | CC(C)NS(=O)(=O)c1cc2c(cc1Cl)NC(=O)C(C)O2 (centres unmarked) [BC19207]
10 | < 5.00 | < 5.00 | – | – | CC1Oc2cc(S(=O)(=O)N3CCCC3)c(Cl)cc2NC1=O (centres unmarked) [BC19208]
11 | 5.00 to 6.00 | < 5.00 | – | – | CCNS(=O)(=O)c1cc2c(cc1Cl)NC(=O)C(C)O2 (centres unmarked) [BC19209]
12 | > 7.00 | < 5.00 | – | – | CCC1Oc2cc(S(=O)(=O)Nc3ccc(C(C)C)cc3)c(Cl)cc2NC1=O (centres unmarked) [BC19210]
13 | 6.00 to 7.00 | < 5.00 | – | – | CCC1Oc2cc(S(=O)(=O)Nc3ccc(OC)cc3)c(Cl)cc2NC1=O (centres unmarked) [BC19211]
14 | > 7.00 | < 5.00 | – | – | CCC1Oc2cc(S(=O)(=O)Nc3ccc(C)c(F)c3)c(Cl)cc2NC1=O (centres unmarked) [BC19212]
15 | 6.00 to 7.00 | < 5.00 | – | – | CCC1Oc2cc(S(=O)(=O)Nc3cccc(SC)c3)c(Cl)cc2NC1=O (centres unmarked) [BC19213]
16 | < 5.00 | < 5.00 | – | – | CCCNS(=O)(=O)c1cc2c(cc1Cl)NC(=O)C(CC)O2 (centres unmarked) [BC19214]
17 | 5.00 to 6.00 | < 5.00 | – | – | CCC1Oc2cc(S(=O)(=O)Nc3cc(Cl)ccc3C)c(Cl)cc2NC1=O (centres unmarked) [BC19215]
18 | > 7.00 | < 5.00 | – | – | CCc1ccc(NS(=O)(=O)c2cc3c(cc2Br)NC(=O)C(C)O3)cc1 (centres unmarked) [BC19216]
19 | < 5.00 | < 5.00 | – | – | CC1Oc2cc(S(=O)(=O)N3CCOCC3)c(Br)cc2NC1=O (centres unmarked) [BC19217]
20 | < 5.00 | < 5.00 | – | – | CC(C)CNS(=O)(=O)c1cc2c(cc1Br)NC(=O)C(C)O2 (centres unmarked) [BC19218]
21 | < 5.00 | < 5.00 | – | – | CC1Oc2cc(S(=O)(=O)N3CCN(C)CC3)c(Br)cc2NC1=O (centres unmarked) [BC19219]
22 | 6.00 to 7.00 | < 5.00 | – | – | CCC1Oc2cc(S(=O)(=O)Nc3cccc(F)c3)c(Br)cc2NC1=O (centres unmarked) [BC19220]
23 | 6.00 to 7.00 | < 5.00 | – | – | CCC1Oc2cc(S(=O)(=O)Nc3cccc(Cl)c3)c(Br)cc2NC1=O (centres unmarked) [BC19221]

Row | pIC50 (NF-κB; [1]) | pIC50 (TNF release; [2]) | pIC50 (NF-κB; LPS-stimulated) | pIC50 (TNF release; [3]) | Structure (SMILES)
24 | < 5.00 | < 5.00 | – | – | CCCNS(=O)(=O)c1cc2c(cc1Br)NC(=O)C(CC)O2 (centres unmarked) [BC19222]
25 | < 5.00 | < 5.00 | – | – | CCC1Oc2cc(S(=O)(=O)NC3CCCCC3)c(Br)cc2NC1=O (centres unmarked) [BC19223]
26 | 6.00 to 7.00 | < 5.00 | – | – | CCC1Oc2cc(S(=O)(=O)Nc3ccc(C)cc3)c(Br)cc2NC1=O (centres unmarked) [BC19224]
27 | 6.00 to 7.00 | < 5.00 | – | – | Cc1ccc(NS(=O)(=O)c2cc(Br)cc3c2OC(C)C(=O)N3)cc1Cl (centres unmarked) [BC19225]
28 | 5.00 to 6.00 | < 5.00 | – | – | CC1Oc2c(cc(Br)cc2S(=O)(=O)N2CCOCC2)NC1=O (centres unmarked) [BC19226]
29 | < 5.00 | < 5.00 | – | – | CC(C)CNS(=O)(=O)c1cc(Br)cc2c1OC(C)C(=O)N2 (centres unmarked) [BC19227]
30 | < 5.00 | < 5.00 | – | – | CC1Oc2c(cc(Br)cc2S(=O)(=O)N2CCN(C)CC2)NC1=O (centres unmarked) [BC19228]
31 | 5.00 to 6.00 | < 5.00 | – | – | CCCNS(=O)(=O)c1cc(Br)cc2c1OC(CC)C(=O)N2 (centres unmarked) [BC19229]
32 | > 7.00 | < 5.00 | – | – | CCC1Oc2c(cc(Br)cc2S(=O)(=O)NCc2ccccc2)NC1=O (centres unmarked) [BC19230]
33 | > 7.00 | < 5.00 | – | – | CCC1Oc2c(cc(Br)cc2S(=O)(=O)Nc2cccc(F)c2)NC1=O (centres unmarked) [BC19231]
34 | > 7.00 | < 5.00 | – | – | CCC1Oc2c(cc(Br)cc2S(=O)(=O)Nc2cccc(Cl)c2)NC1=O (centres unmarked) [BC19232]
35 | 5.00 to 6.00 | 5.00 to 6.00 | – | – | CCC1Oc2c(cc(Br)cc2S(=O)(=O)NC2CCCCC2)NC1=O (centres unmarked) [BC19233]
36 | > 7.00 | 5.00 to 6.00 | – | – | CCC1Oc2c(cc(Br)cc2S(=O)(=O)Nc2ccc(C)cc2)NC1=O (centres unmarked) [BC19234]
37 | – | – | < 5.00 | < 5.00 | CC1Nc2cc(S(=O)(=O)N3CCCC3)ccc2NC1=O (centres unmarked) [BC19235]
38 | – | – | < 5.00 | < 5.00 | CNC(=O)N1c2cc(S(=O)(=O)N3CCCC3)ccc2NC(=O)C1C (centres unmarked) [BC19236]
39 | – | – | > 7.00 | < 5.00 | O=C(NCCN1CCOCC1)c1ccc2nc(-c3ccc(F)cc3)c(-c3ccc(F)cc3)nc2c1 [BC19237]
40 | – | – | > 7.00 | < 5.00 | Fc1ccc(-c2nc3ccc(-c4nnnn4CCN4CCOCC4)cc3nc2-c2ccc(F)cc2)cc1 [BC19238]
41 | – | – | 6.00 to 7.00 | < 5.00 | O=C(Nc1ccc2nc(-c3ccc(F)cc3)c(-c3ccc(F)cc3)nc2c1)OCC(F)(F)F [BC19239]
42 | – | – | > 7.00 | < 5.00 | Fc1ccc(-c2nc3ccc(-c4cn(CCN5CCOCC5)nn4)cc3nc2-c2ccc(F)cc2)cc1 [BC19240]
43 | – | – | 5.00 to 6.00 | < 5.00 | Cc1nc(C)c(-c2ccc3nc(-c4ccc(F)cc4)c(-c4ccc(F)cc4)nc3c2)s1 [BC19241]
44 | – | – | 6.00 to 7.00 | < 5.00 | Fc1ccc(-c2nc3ccc(-c4cccnc4)cc3nc2-c2ccc(F)cc2)cc1 [BC19242]
45 | – | – | 6.00 to 7.00 | < 5.00 | CS(=O)(=O)c1cncc(-c2ccc3nc(-c4ccc(F)cc4)c(-c4ccc(F)cc4)nc3c2)c1 [BC19243]
46 | – | – | < 5.00 | < 5.00 | CN1CCOc2cc(-c3ccc4nc(-c5ccc(F)cc5)c(-c5ccc(F)cc5)nc4c3)ccc21 [BC19244]

Row | pIC50 (NF-κB; [1]) | pIC50 (TNF release; [2]) | pIC50 (NF-κB; LPS-stimulated) | pIC50 (TNF release; [3]) | Structure (SMILES)
47 | – | – | 5.00 to 6.00 | < 5.00 | Fc1ccc(-c2nc3ccc(-c4ccncc4)cc3nc2-c2ccc(F)cc2)cc1 [BC19245]
48 | – | – | 5.00 to 6.00 | < 5.00 | CCc1nnc(-c2ccc3nc(-c4ccc(F)cc4)c(-c4ccc(F)cc4)nc3c2)o1 [BC19246]
49 | – | – | 5.00 to 6.00 | < 5.00 | CCCc1nnc(-c2ccc3nc(-c4ccc(F)cc4)c(-c4ccc(F)cc4)nc3c2)[nH]1 [BC19247]
50 | – | – | < 5.00 | < 5.00 | CS(=O)(=O)c1ccc(-c2nc3ccc(-c4ncco4)cc3nc2-c2ccc(F)cc2)s1 [BC19248]
51 | – | – | 5.00 to 6.00 | < 5.00 | Cc1cnc(-c2ccc3nc(-c4ccc(F)cc4)c(-c4cccs4)nc3c2)o1 [BC19249]
52 | – | – | > 7.00 | < 5.00 | Fc1ccc(-c2nc3ccc(-c4nnco4)cc3nc2-c2ccc(F)cc2)cc1 [BC19250]
53 | – | – | > 7.00 | 5.00 to 6.00 | O=C(Nc1ccc2nc(-c3ccc(F)cc3)c(-c3ccc(F)cc3)nc2c1)C1CCNCC1 [BC19251]
54 | > 7.00 | < 5.00 | – | – | O=c1c(S(=O)(=O)c2ccc(F)c(F)c2)c[nH]c2c(F)ccc(F)c12 [BC19252]
55 | > 7.00 | < 5.00 | – | – | Cc1ccc(F)c2[nH]cc(S(=O)(=O)c3ccc(F)c(F)c3)c(=O)c12 [BC19253]
56 | > 7.00 | < 5.00 | – | – | Cc1ccc(Cl)c2c(=O)c(S(=O)(=O)c3ccc(F)c(F)c3)c[nH]c12 [BC19254]
57 | 5.00 to 6.00 | < 5.00 | – | – | COc1ccc(OC)c2c(=O)c(S(=O)(=O)c3ccc(F)c(F)c3)c[nH]c12 [BC19255]
58 | 5.00 to 6.00 | < 5.00 | – | – | O=c1c(S(=O)(=O)c2ccc(F)c(F)c2)c(O)[nH]c2ncccc12 [BC19256]
59 | < 5.00 | < 5.00 | – | – | O=c1c(S(=O)(=O)c2ccc(F)c(F)c2)cnc2ccccn12 [BC19257]
60 | 5.00 to 6.00 | < 5.00 | – | – | Cc1ccc(S(=O)(=O)c2c(O)[nH]c3ncccc3c2=O)cc1 [BC19258]
61 | 5.00 to 6.00 | < 5.00 | – | – | O=c1c(S(=O)(=O)c2ccc(Cl)cc2)c(O)[nH]c2ncccc12 [BC19259]
62 | – | – | > 7.00 | > 7.00 | Cc1ccc(S(=O)(=O)c2nc(-c3ccccc3)oc2S(C)(=O)=O)cc1 [BC19260]
63 | – | – | > 7.00 | < 5.00 | CS(=O)(=O)c1oc(-c2ccccc2)nc1S(=O)(=O)c1cccc(F)c1 [BC19261]
64 | – | – | 6.00 to 7.00 | > 7.00 | CS(=O)(=O)c1oc(-c2ccccc2)nc1S(=O)(=O)c1ccc(F)c(F)c1 [BC19262]
65 | – | – | 6.00 to 7.00 | 6.00 to 7.00 | Cc1ccc(S(=O)(=O)c2nc(-c3ccccc3)oc2S(=O)(=O)C(C)C)cc1 [BC19263]
66 | – | – | > 7.00 | 6.00 to 7.00 | CCCS(=O)(=O)c1oc(-c2ccccc2)nc1S(=O)(=O)c1ccc(C)cc1 [BC19264]
67 | – | – | > 7.00 | 6.00 to 7.00 | Cc1ccc(S(=O)(=O)c2nc(-c3ccccc3)oc2S(=O)(=O)CC2CC2)cc1 [BC19265]
